Test results taken from US9326956B2, “Methods for improving brain development and cognitive function using beta-hydroxy-beta methylbutyrate” (Abbott Laboratories, priority 2011, dated 2016).

What was measured:
[1] = tested on: MEF2 transcription factor; experiment: MEF2-dependent transcription luciferase activity (pGL3-4xMEF transfection); format: cell-based; details: Neuro 2A cells; inhibitor added with HMB; FIGS. 5B-5D
Procedure: For the transfection experiments in this Example, Neuro-2A cells were used at 80-90% confluence grown in Dulbecco's Modified Eagle's medium (DMEM). Cells were exposed for 5 hours to plasmid pGL3-4×MEF, which contains 4 copies in tandem of the MEF2D binding DNA sequence prior to the sequence of DNA which codes for firefly luciferase. Effectors were added to the medium for 18 h and luciferase activity was determined. For the study of inhibition of signaling factors, inhibitors of the phosphatidyl-inositol 3 kinase (LY294002), ERK 1/2 (PD98059) and mTORC1 activations (rapamycin) were added to the cells.
Data are expressed as mean±SEM. Student t-test was used to analyze the results.

[2] = HMB concentration over time in brain interstitial fluid (hippocampus microdialysis) after oral administration; format: in vivo, Sprague-Dawley rats
Procedure: In this Example, the appearance of HMB and its concentration over time in brain interstitial fluid were analyzed after oral administration of HMB.
Initially, Sprague-Dawley rats (Charles River, France) weighing 400-500 g were housed in cages at constant room temperature (22±2° C.) and 45-55% humidity under a regular 12-hour light/dark schedule. Food and water were freely available. Procedures involving animals and their care were conducted in conformity with the institutional guidelines that are in compliance with national laws and EC policies for the Care and Use of Laboratory Animals (RD 2101-2005, 86/609/CEE).
A guide cannula was stereotaxically inserted into the hippocampus area of each anesthetized rat at the coordinates described in a stereotaxic atlas for rats. The rats were allowed to recover from surgery for at least three days. On the first day of the experiment, a brain microdialysis probe (MD-2204, BR-4, 4 mm membrane, available from BASi, West Lafayette, Ind.) was inserted into the guide cannula of each rat. The probe was perfused with Ringer's solution (aCFS Harvard apparatus, #597316) at a constant rate of 2 μl/min. The rat was left in the cage with space for relatively free movement. Samples of dialysate were automatically collected every twenty minutes. A bolus dose of HMB (250 mg/kg body weight) was given by gavage 100 min after starting the experiment and sampling was continued for another 160-220 min.
HMB was measured using UPLC-MS. Specifically, samples of 30-40 μl in aCSF were microfiltered through a 0.2 μm nylon filter, diluted with an equal amount of water, and then injected into the UPLC-TQD (Acuity-TQD system available from Waters Corporation, Milford, Mass.). HMB was analyzed using a BEH Hillic column 1.7 μm; 2.1×150 mm using a gradient consisting of H2O:MeCN 0.1% formic acid. The mass spectrometer was set to Ion Mode ES+.

Neuro-2A cells = experiment: Rate of protein synthesis, incorporation of [3H]-tyrosine into cellular protein pool; format: cell-based; details: HMB vs. Control, FIG. 4
Procedure: The effect of HMB on the rate of protein synthesis in Neuro-2A cells was determined by measuring the incorporation of [3H]-tyrosine into cellular protein pool. The phosphorylative status of mTOR and up/down-protein kinases (Akt, ERK 1/2) was determined by western blot. The cell proliferation/viability was determined with the MTT (3-(4,5-dimethylthiazol-2-yl)-2,5-diphenyltetrazolium bromide) colorimetric assay. Data are expressed as mean±SEM. Student t-test was used to analyze the results.

effect of inhibitor on the HMB-mediated increase in MEF2 [1] | crossing of the blood brain barrier ([2]; oral administration, microdialysis model in rats) | maximum concentration of HMB measured in brain microdialysates ([2]; rat 1, 250 mg/kg bolus by gavage) | time after administration at which HMB appeared in the brain ([2]; rat 1, 250 mg/kg bolus by gavage, brain microdialysate (fraction 7)) | HMB concentration level at end of sampling ([2]; rat 1, more than 2.5 hours after the gavage) | maximum concentration of HMB in brain microdialysates ([2]; rat 2, 250 mg/kg bolus by gavage) | fraction in which HMB was detected for the first time ([2]; rat 2, 250 mg/kg by gavage at fraction 5, 20 min fractions) | HMB concentration level at end of experiment ([2]; rat 2, more than 3.5 h after the gavage) | SMILES | increase on the protein synthesis (Neuro-2A cells)
totally blocked | – | – | – | – | – | – | – | COc1cccc(-c2cc(=O)c3ccccc3o2)c1N [PD98059] | –
– | able to cross the blood brain barrier | 10.5 ppm | 40 min | had not decreased | more than 4 ppm | fraction 7 | had not yet reached basal level | CC(C)(O)CC(=O)O [HMB, beta-hydroxy-beta-methylbutyrate] | 20%
